SMILES strings stand for the structures.

The target in assay [1] is EGFR mutant L858R Ba/F3 cells (Homo sapiens, UniProt P00533, L858R, cells depend on it). The assay is described as follows: Ba/F3 cell proliferation (Cell Titer Glo), EGFR L858R. It is filed as cell-based, murine. Conditions: 72 hours, Table 6, read-out: L858R BaF3. An excerpt: (§1) The EGFR mutant L858R Ba/F3 cells have been previously described (Zhou, W., et al. Nature 462, 2009, 1070-1074). The EGFR C797S and C775S mutations were introduced via site directed mutagenesis using the Quick Change Site-Directed Mutagenesis kit into a vector containing EGFR L858R mutation (Stratagene; La Jolla, CA) according to the manufacturer's instructions. All constructs were confirmed by DNA sequencing. The constructs were then shuttled into the retroviral vector JP1540 by either using the Cre-recombination system (Agilent Technologies, Santa Clara, CA) or the In-fusion HD Cloning kit (Takara Bio USA, Inc.; Mountain view, CA). Ba/F3 cells were then infected with retrovirus per standard protocols, as described previously (Zhou, et al, Nature 2009). Stable clones were obtained by selection in puromycin (2 μg/ml). All BaF/3 mutant cells were maintained in RPMI 1640 (Cellgro; Mediatech Inc., Herndon, CA) supplemented with 10% FBS, 100 units/mL penicillin, 100 units/mL streptomycin.
EGFR mutant L858R Ba/F3 cells, sequence (P00533 whole entry L858R, the tested form may be a part): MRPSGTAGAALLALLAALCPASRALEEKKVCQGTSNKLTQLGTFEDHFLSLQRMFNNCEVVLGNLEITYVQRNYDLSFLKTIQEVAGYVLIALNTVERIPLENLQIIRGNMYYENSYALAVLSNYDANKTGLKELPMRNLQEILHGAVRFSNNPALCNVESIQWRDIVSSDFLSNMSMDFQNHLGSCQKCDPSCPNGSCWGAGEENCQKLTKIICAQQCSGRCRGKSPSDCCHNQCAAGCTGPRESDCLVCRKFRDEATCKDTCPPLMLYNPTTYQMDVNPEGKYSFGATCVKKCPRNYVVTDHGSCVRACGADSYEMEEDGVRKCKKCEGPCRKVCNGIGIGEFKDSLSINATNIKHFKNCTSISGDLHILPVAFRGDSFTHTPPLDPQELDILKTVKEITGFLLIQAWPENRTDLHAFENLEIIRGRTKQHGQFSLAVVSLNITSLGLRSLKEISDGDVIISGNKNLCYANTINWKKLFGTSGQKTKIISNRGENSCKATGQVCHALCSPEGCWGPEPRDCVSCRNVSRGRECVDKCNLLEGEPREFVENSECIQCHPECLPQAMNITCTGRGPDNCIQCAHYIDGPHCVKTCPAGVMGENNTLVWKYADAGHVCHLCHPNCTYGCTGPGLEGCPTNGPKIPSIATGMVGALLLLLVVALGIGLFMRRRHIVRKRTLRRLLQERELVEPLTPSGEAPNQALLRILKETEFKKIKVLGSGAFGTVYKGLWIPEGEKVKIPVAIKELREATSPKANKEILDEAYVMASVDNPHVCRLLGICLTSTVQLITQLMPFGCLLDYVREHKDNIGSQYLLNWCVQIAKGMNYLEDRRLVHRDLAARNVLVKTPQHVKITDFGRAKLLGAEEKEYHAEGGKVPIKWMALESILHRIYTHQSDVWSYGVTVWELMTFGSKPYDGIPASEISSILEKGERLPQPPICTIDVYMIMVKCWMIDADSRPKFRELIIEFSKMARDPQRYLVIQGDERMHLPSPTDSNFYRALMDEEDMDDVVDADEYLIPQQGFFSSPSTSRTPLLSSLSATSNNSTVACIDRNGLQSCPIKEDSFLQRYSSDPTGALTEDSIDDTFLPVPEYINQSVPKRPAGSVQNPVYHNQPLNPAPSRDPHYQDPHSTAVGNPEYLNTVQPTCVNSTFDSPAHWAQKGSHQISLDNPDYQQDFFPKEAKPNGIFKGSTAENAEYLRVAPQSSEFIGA
(§2) Growth and inhibition of growth was assessed by the Cell Titer Glo assay (Promega, Madison, WI) and was performed according to the manufacturer's instructions. The Cell Titer Glo assay is a luminescence-based method used to determine the number of viable cells based on quantitation of the ATP present, which is directly proportional to the amount of metabolically active cells present. Ba/F3 cells of different EGFR genotypes were exposed to compounds for 72 hours and the number of cells used per experiment was determined empirically as has been previously established (Zhou, et al., Nature 2009). All experimental points were set up in triplicates in 384-well plates. […] The curves were fitted using a non-linear regression model with a sigmoidal dose response.
(§3) Ba/F3 cells assay data are provided below in Table 5 and Table 6. For inhibitory activity against EGFR mutants, the following designations are used: <0.1 μM=A, 0.1 μM˜0.5 μM=B, 0.5 μM˜2.5 μM=C, ≥2.5 μM=D
In general terms: In ATP-based viability assays light output follows the ATP content of the culture.

The target of assay [2] is EGFR L858R/C797S Ba/F3 cells (Homo sapiens, UniProt P00533, C797S/L858R, cells depend on it). The assay is described as follows: Ba/F3 cell proliferation (Cell Titer Glo), EGFR L858R/C797S. As to conditions: 72 hours, Table 6. It counts as cell-based, murine.
EGFR L858R/C797S Ba/F3 cells, sequence (P00533 whole entry C797S/L858R): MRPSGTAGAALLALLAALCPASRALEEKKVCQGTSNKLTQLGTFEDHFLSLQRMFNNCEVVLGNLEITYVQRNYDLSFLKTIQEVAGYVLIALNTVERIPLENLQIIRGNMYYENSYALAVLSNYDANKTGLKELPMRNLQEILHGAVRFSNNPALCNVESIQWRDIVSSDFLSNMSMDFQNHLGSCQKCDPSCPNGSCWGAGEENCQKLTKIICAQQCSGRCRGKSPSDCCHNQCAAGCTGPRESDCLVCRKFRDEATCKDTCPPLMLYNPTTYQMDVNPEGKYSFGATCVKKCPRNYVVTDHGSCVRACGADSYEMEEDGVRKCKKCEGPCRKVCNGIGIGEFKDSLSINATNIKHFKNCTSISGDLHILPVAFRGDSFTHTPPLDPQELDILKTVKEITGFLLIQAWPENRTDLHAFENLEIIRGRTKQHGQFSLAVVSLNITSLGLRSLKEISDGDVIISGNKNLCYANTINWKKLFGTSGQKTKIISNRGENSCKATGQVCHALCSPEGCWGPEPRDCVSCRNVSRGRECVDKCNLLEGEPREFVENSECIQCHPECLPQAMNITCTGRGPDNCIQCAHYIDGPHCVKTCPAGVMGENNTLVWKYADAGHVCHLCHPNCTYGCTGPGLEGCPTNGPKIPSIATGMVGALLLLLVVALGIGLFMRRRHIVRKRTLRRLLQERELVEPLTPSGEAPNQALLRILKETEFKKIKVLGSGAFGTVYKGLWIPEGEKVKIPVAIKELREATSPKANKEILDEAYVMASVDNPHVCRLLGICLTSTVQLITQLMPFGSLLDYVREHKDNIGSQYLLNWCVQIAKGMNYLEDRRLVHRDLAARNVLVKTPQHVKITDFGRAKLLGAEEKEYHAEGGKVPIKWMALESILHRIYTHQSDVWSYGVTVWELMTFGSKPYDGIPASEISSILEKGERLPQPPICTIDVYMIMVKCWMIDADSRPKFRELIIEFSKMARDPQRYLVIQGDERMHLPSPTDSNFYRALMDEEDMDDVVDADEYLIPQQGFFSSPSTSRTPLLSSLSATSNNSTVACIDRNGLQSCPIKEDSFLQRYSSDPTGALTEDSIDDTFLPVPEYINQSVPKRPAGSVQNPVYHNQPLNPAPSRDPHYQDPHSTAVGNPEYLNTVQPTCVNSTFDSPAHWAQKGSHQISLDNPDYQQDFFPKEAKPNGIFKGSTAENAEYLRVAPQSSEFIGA
Source text: as §1, §2, §3

Regarding `C=CC(=O)N1CCC(N2Cc3cnc(Nc4ccc(N(C)C)cc4)nc3N(C)C2=O)c2ccccc21` (stereo not shown) [Compound 074], the GI50 in assay [1] and in assay [2] was < 100 nM each time.

As to `C=CC(=O)N1CCC(N2Cc3cnc(Nc4ccc(CN5CCN(C)CC5)cn4)nc3N(C)C2=O)c2ccccc21` (stereo not shown) [Compound 070], the GI50 in assay [1] and in assay [2] was < 100 nM in each case.

For `C=CC(=O)N1CCC(N2Cc3cnc(Nc4ccc(N5CCN(C)CC5)c(F)c4)nc3N(C)C2=O)c2ccccc21` (stereo not shown) [Compound 055], the GI50 in assay [1] and in assay [2] was < 100 nM throughout.

As to `C=C(F)C(=O)N1CC[C@H](N2Cc3cnc(Nc4ccc5c(c4)CCN(C)C5)nc3N(c3cnn(C)c3)C2=O)c2ccccc21` [Compound 109], the GI50 in assay [1] and in assay [2] was < 100 nM in each case.

In the case of `C=CC(=O)N1CCC(N2Cc3cnc(Nc4ccc(C5=CCN(C)CC5)cc4)nc3N(C)C2=O)c2ccccc21` (stereo not shown) [Compound 067], the GI50 in assay [1] and in assay [2] was < 100 nM throughout.

As to `C=CC(=O)Nc1cccc2[nH]cc(CN3Cc4cnc(Nc5ccc(N6CCN(C)CC6)cc5)nc4N(C)C3=O)c12` [Compound 050], the GI50 in assay [1] and in assay [2] was ≥ 2500 nM throughout.

On to `C=CC(=O)N1CCC(N2Cc3cnc(Nc4ccc(N5CCN(C)CC5)cc4)nc3N(C3CCCC3)C2=O)c2ccccc21` (stereo not drawn) [Compound 057, 1-cyclopentyl-7-[4-(4-methylpiperazin-1-yl)anilino]-S-(1-prop-2-enoyl-3,4-dihydro-2H-quinolin-4-yl)-4H-pyrimido[4,5-d]pyrimidin-2-one], for which the GI50 in assay [1] and in assay [2] was < 100 nM throughout.

As to `C=CC(=O)N1CCC(N2Cc3cnc(Nc4ccc(N(C)CCN(C)C)c(C(F)(F)F)c4)nc3N(C)C2=O)c2ccccc21` (stereo not shown) [Compound 076], the GI50 in assay [1] and in assay [2] was < 100 nM each time.

`CN1C(=O)N(C2CN(C#N)c3ccccc32)Cc2cnc(Nc3cnn(CCO)c3)nc21` (stereo not shown) [Compound 106, 3-[7-[[1-(2-hydroxyethyl)pyrazol-4-yl]amino]-1-methyl-2-oxo-4H-pyrimido[4,5-d]pyrimidin-S-yl]indoline-1-carbonitrile]: the GI50 in assay [1] and in assay [2] was ≥ 2500 nM each time.

For `C=CC(=O)N1CCC(N2Cc3cnc(Nc4ccc(N5CCN(C)CC5)nc4)nc3N(C)C2=O)c2ccccc21` (stereo not shown) [Compound 056], the GI50 in assay [1] and in assay [2] was < 100 nM in each case.

Regarding `C=CC(=O)N1CC[C@H](N2Cc3cnc(Nc4ccc(N5CCN(C)CC5)cc4)nc3N(C)C2=O)c2ccccc21` [Compound 048, 1-methyl-7-[4-(4-methylpiperazin-1-yl)anilino]-S-[(4S)-1-prop-2-enoyl-3,4-dihydro-2H-quinolin-4-yl]-4H-pyrimido[4,5-d]pyrimidin-2-one], the GI50 in assay [1] and in assay [2] was < 100 nM throughout.

For the compound `C=CC(=O)N1CCC(N2Cc3cnc(Nc4cccc(OC(F)F)c4)nc3N(C)C2=O)c2ccccc21` (stereo not shown) [Compound 081], the GI50 in assay [1] and in assay [2] was < 100 nM each time.

For `C=CC(=O)N1CCC(N2Cc3cnc(Nc4cc(F)c(N5CCN(C)CC5)c(F)c4)nc3N(C)C2=O)c2ccccc21` (stereo not shown) [Compound 072], the GI50 in assay [1] and in assay [2] was < 100 nM in each case.

With `C/C=C(\C#N)C(=O)N1CC[C@H](N2Cc3cnc(Nc4ccc(N5CCN(C)CC5)cc4)nc3N(C)C2=O)c2ccccc21` [Compound 101], the GI50 in assay [1] and in assay [2] was ≥ 2500 nM in each case.

With `C=CC(=O)N1CCC(N2Cc3cnc(Nc4cnn(CCO)c4)nc3N(C)C2=O)c2ccccc21` (stereo not shown) [Compound 063], the GI50 in assay [1] and in assay [2] was < 100 nM in each case.

For `C=CC(=O)N1CCC(N2Cc3cnc(Nc4ccc(N5CCN(C)CC5)cc4)nc3N(c3cccc(NC(C)=O)c3)C2=O)c2ccccc21` (stereo not shown) [Compound 051], the GI50 in assay [1] fell in the range of 100 to 500 nM; in assay [2], 500 to 2500 nM.

For `CN1CCN(c2ccc(Nc3ncc4c(n3)N(C)C(=O)N([C@H]3CCN(C(=O)/C=C/CF)c5ccccc53)C4)cc2)CC1` [Compound 095], the GI50 in assay [1] and in assay [2] was < 100 nM each time.

In the case of `[2H]C1(N2Cc3cnc(Nc4cnn(CCO)c4)nc3N(C)C2=O)CCN(C(=O)C=C)c2c(OC)cccc21` (stereo not shown) [Compound 129, 3-(4-deuterio-8-methoxy-1-prop-2-enoyl-2,3-dihydroquinolin-4-yl)-7-[[1-(2-hydroxyethyl)pyrazol-4-yl]amino]-1-methyl-4H-pyrimido[4,5-d]pyrimidin-2-one], the GI50 in assay [1] was 500 to 2500 nM; in assay [2], ≥ 2500 nM.

`C=CC(=O)N1CCC(N2Cc3cnc(Nc4cccc(N5CCN(C)CC5)c4)nc3N(C)C2=O)c2ccccc21` (stereo not shown) [Compound 073]: the GI50 in assay [1] and in assay [2] was < 100 nM in each case.

In the case of `C=CC(=O)N1CCC(N2Cc3cnc(Nc4ccc(N5CCN(C)CC5)cc4)nc3N(C)C2=O)c2cccc(OC)c21` (stereo not shown) [Compound 100, 3-(8-methoxy-1-prop-2-enoyl-3,4-dihydro-2H-quinolin-4-yl)-1-methyl-7-[4-(4-methylpiperazin-1-yl)anilino]-4H-pyrimido[4,5-d]pyrimidin-2-one], the GI50 in assay [1] and in assay [2] was < 100 nM each time.

As for `C=CC(=O)N1CCC(N2Cc3cnc(Nc4ccc5c(c4)CCN(C)C5)nc3N(C)C2=O)c2ccccc21` (stereo not shown) [Compound 080], the GI50 in assay [1] and in assay [2] was < 100 nM each time.

For the compound `C=CC(=O)N1Cc2ccccc2C(N2Cc3cnc(Nc4ccc(N5CCN(C)CC5)cc4)nc3N(C)C2=O)C1` (stereo not shown) [Compound 060, 3-(2-acryloyl-1,2,3,4-tetrahydroisoquinolin-4-yl)-1-methyl-7-((4-(4-methylpiperazin-1-yl)phenyl)amino)-3,4-dihydropyrimido[4,5-d]pyrimidin-2(1H)-one], the GI50 in assay [1] and in assay [2] was ≥ 2500 nM each time.

Regarding `C=C(F)C(=O)N1CC(F)(F)C(N2Cc3cnc(Nc4cnn(CCO)c4)nc3N(C)C2=O)c2ccccc21` (stereo not shown) [Compound 108, 3-[3,3-difluoro-1-(2-fluoroprop-2-enoyl)-2,4-dihydroquinolin-4-yl]-7-[[1-(2-hydroxyethyl)pyrazol-4-yl]amino]-1-methyl-4H-pyrimido[4,5-d]pyrimidin-2-one], the results for the GI50 in assay [1] and in assay [2] were 500 to 2500 nM and ≥ 2500 nM, respectively.

For `C=CC(=O)N1CCC(N2Cc3cnc(Nc4ccc(N5CCN(C)CC5)cc4)nc3N(C)C2=O)c2cccc(F)c21` (stereo not shown) [Compound 099, 3-(8-fluoro-1-prop-2-enoyl-3,4-dihydro-2H-quinolin-4-yl)-1-methyl-7-[4-(4-methylpiperazin-1-yl)anilino]-4H-pyrimido[4,5-d]pyrimidin-2-one], the GI50 in assay [1] and in assay [2] was < 100 nM in each case.

For `CN(C)C/C=C/C(=O)N1CCC(N2Cc3cnc(Nc4ccc(N5CCN(C)CC5)cc4)nc3N(C)C2=O)c2ccccc21` (stereo not shown) [Compound 065], the GI50 in assay [1] and in assay [2] was 500 to 2500 nM in each case.

For the compound `C=C(F)C(=O)N1CCC(N2Cc3cnc(Nc4ccc(N5CCN(C)CC5)cc4)nc3N(C)C2=O)c2ccccc21` (stereo not shown) [Compound 064], the GI50 in assay [1] and in assay [2] was < 100 nM in each case.

As to `C=CC(=O)N1CCC(N2Cc3cnc(Nc4cnn(C)c4)nc3N(C)C2=O)c2ccccc21` (stereo not shown) [Compound 061], the GI50 in assay [1] and in assay [2] was < 100 nM in each case.

On to `C=CC(=O)N1CCC(N2Cc3nnc(Nc4ccc(N5CCN(C)CC5)cc4)cc3N(C)C2=O)c2ccccc21` (stereo not drawn) [Compound 092, 5-methyl-S-[4-(4-methylpiperazin-1-yl)anilino]-7-(1-prop-2-enoyl-3,4-dihydro-2H-quinolin-4-yl)-8H-pyrimido[5,4-c]pyridazin-6-one], for which the GI50 in assay [1] and in assay [2] was ≥ 2500 nM throughout.

On to `C=CC(=O)N1CCC(N2Cc3cnc(Nc4cnn(CCN(C)C)c4)nc3N(C)C2=O)c2ccccc21` (stereo not shown) [Compound 062], for which the GI50 in assay [1] and in assay [2] was < 100 nM in each case.

In the case of `CN1C(=O)N([C@H]2CCN(C(=O)CC#N)c3ccccc32)Cc2cnc(Nc3cnn(CCO)c3)nc21` [Compound 104], the GI50 in assay [1] and in assay [2] was ≥ 2500 nM in each case.

Regarding `C=CC(=O)N1CC[C@H](N2Cc3cnc(Nc4ccc5c(c4)CCN(C)C5)nc3N(CCO)C2=O)c2cccc(C)c21` [Compound 154, 1-(2-hydroxyethyl)-7-[(2-methyl-3,4-dihydro-1 H-isoquinolin-6-yl)amino]-S-[(4S)-8-methyl-1-prop-2-enoyl-3,4-dihydro-2H-quinolin-4-yl]-4H-pyrimido[4,5-d]pyrimidin-2-one], the GI50 in assay [1] and in assay [2] was < 100 nM in each case.

For the compound `C=CC(=O)N1CCC(N2Cc3cnc(Nc4ccc(OCCN5CCCC5)cc4)nc3N(C)C2=O)c2ccccc21` (stereo not shown) [Compound 068], the GI50 in assay [1] and in assay [2] was < 100 nM throughout.

For the origin of these results see patent publication US20240352021A1 (DANA-FARBER CANCER INSTITUTE, INC., priority 2021, published 2024).
